The text below walks through data of patent US9732075B2, “Benzimidazole-proline derivatives” (IDORSIA PHARMACEUTICALS LTD, priority 2012, dated 2017).

One assay addresses human orexin-1 receptor (Homo sapiens (Human), UniProt O43613). Put plainly: In vitro assay: intracellular calcium measurements (FLIPR), antagonistic activity. Type of assay: cell-based. The settings on record: CHO cells expressing human orexin-1 receptor, orexin-A agonist, geometric mean, read-out: IC50 Ox1. As for the experimental part:
(§1) In Vitro Assay: Intracellular Calcium Measurements:
(§2) Chinese hamster ovary (CHO) cells expressing the human orexin-1 receptor and the human orexin-2 receptor, respectively, are grown in culture medium (Ham F-12 with L-Glutamine) containing 300 μg/ml G418, 100 U/ml penicillin, 100 μg/ml streptomycin and 10% heat inactivated fetal calf serum (FCS). The cells are seeded at 20,000 cells/well into 384-well black clear bottom sterile plates (Greiner). The seeded plates are incubated overnight at 37° C. in 5% CO2.
(§3) Human orexin-A as an agonist is prepared as 1 mM stock solution in MeOH: water (1:1), diluted in HBSS containing 0.1% bovine serum albumin (BSA), NaHCO3: 0.375 g/l and 20 mM HEPES for use in the assay at a final concentration of 3 nM.
(§4) Antagonists are prepared as 10 mM stock solution in DMSO, then diluted in 384-well plates using DMSO followed by a transfer of the dilutions into in HBSS containing 0.1% bovine serum albumin (BSA), NaHCO3: 0.375 g/l and 20 mM HEPES. On the day of the assay, 50 μl of staining buffer (HBSS containing 1% FCS, 20 mM HEPES, NaHCO3: 0.375 g/l, 5 mM probenecid (Sigma) and […] of the fluorescent calcium indicator fluo-4 AM (1 mM stock solution in DMSO, containing 10% pluronic) is added to each well. The 384-well cell-plates are incubated for 50 min at 37° C. in 5% CO2 followed by equilibration at RT for 30 min before measurement.
(§5) Within the Fluorescent Imaging Plate Reader (FLIPR Tetra, Molecular Devices), antagonists are added to the plate in a volume of 10 μl/well, incubated for 120 min and finally 10 μl/well of agonist is added. Fluorescence is measured for each well at 1 second intervals, and the height of each fluorescence peak is compared to the height of the fluorescence peak induced by an approximate EC70 (for example 5 nM) of orexin-A with vehicle in place of antagonist. The IC50 value (the concentration of compound needed to inhibit 50% of the agonistic response) is determined and may be normalized using the obtained IC50 value of a on-plate reference compound. Optimized conditions are achieved by adjustment of pipetting speed and cell splitting regime. The calculated IC50 values may fluctuate depending on the daily cellular assay performance. Fluctuations of this kind are known to those skilled in the art. Average IC50 values from several measurements are given as geometric mean values.

The next assay has as its target human orexin-2 receptor (Homo sapiens (Human), UniProt O43614). The description is as above. The format is cell-based. The settings on record: CHO cells expressing human orexin-2 receptor, orexin-A agonist, geometric mean, read-out: IC50 Ox2. As for the experimental part:
as §1, §2, §3, §4, §5

Chain of human orexin-1 receptor (O43613 whole entry): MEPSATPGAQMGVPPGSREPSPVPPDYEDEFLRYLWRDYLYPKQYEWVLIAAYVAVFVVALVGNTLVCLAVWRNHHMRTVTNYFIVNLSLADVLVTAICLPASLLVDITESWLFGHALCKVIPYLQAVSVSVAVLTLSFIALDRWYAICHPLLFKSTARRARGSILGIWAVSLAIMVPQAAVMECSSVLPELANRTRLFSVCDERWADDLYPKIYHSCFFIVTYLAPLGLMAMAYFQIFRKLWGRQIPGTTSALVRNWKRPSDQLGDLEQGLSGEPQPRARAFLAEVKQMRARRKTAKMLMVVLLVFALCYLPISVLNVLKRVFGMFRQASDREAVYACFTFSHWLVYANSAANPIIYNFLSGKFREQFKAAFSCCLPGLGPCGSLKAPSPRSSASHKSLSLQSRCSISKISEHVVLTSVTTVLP
Chain of human orexin-2 receptor (O43614 whole entry): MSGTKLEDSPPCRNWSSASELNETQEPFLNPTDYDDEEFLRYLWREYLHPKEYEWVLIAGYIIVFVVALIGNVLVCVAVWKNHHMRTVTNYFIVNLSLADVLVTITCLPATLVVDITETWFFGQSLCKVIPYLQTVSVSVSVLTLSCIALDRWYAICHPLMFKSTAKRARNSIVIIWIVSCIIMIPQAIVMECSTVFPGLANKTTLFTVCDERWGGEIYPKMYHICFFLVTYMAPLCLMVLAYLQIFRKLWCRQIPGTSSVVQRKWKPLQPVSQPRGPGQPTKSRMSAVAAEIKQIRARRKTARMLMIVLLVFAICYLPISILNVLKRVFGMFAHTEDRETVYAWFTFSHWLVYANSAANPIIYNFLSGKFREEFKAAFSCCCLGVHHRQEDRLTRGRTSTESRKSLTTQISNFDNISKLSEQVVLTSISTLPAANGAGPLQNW

Regarding `Cc1ccc(-n2cccn2)c(C(=O)N2CCC[C@@]2(C)c2nc3cc(C(F)(F)F)ccc3[nH]2)n1` [Ex. 5.177], the IC50 was found to be 76 nM on human orexin-1 receptor and 860 nM on human orexin-2 receptor.
Take `C[C@@]1(c2nc3cc(C(F)(F)F)ccc3[nH]2)CCCN1C(=O)c1cc(F)ccc1-n1nccn1` [Ex. 5.165]: the IC50 was 65 nM at human orexin-1 receptor and 355 nM on human orexin-2 receptor.
With `CSc1ccc2nc([C@@H]3CCCN3C(=O)c3cc(Cl)ccc3-n3nccn3)[nH]c2c1` [Ex. 1.149], the values for the IC50 at human orexin-1 receptor and at human orexin-2 receptor were 143 nM and 9 nM, respectively.
Turning to `Cc1ccc(-c2nc(C)sc2C(=O)N2CC[C@H](C)[C@H]2c2nc3cc(Cl)c(C)cc3[nH]2)cc1` [Ex. 4.79], the IC50 at human orexin-1 receptor is 18 nM; on human orexin-2 receptor it was 541 nM.
As to `Cc1ccc(-n2nccn2)c(C(=O)N2CC[C@H](C)[C@H]2c2nc3c(Cl)cccc3[nH]2)c1` [Ex. 4.36], the IC50 on human orexin-1 receptor amounted to 70 nM; on human orexin-2 receptor it was 2740 nM.
Regarding `COc1cc2nc([C@]3(C)CCCN3C(=O)c3nc(C)sc3-c3ccc(C(F)(F)F)cc3)[nH]c2cc1OC` [Ex. 5.74], the IC50 at human orexin-1 receptor stood at 592 nM; at human orexin-2 receptor it was 414 nM.
`C=C1C[C@@H](c2nc3ccc(Cl)c(C)c3[nH]2)N(C(=O)c2cc(C)c(C)cc2-n2nccn2)C1` [Ex. 6.130]: the figures for the IC50 at human orexin-1 receptor and at human orexin-2 receptor were 11 nM and 0.6 nM, respectively.
The corresponding values for `Cc1c(Br)cc2[nH]c([C@]3(C)CCCN3C(=O)c3ccccc3-c3ccccc3)nc2c1C` [Ex. 5.269] are 15 nM and 22 nM.
In the case of `C[C@@]1(c2nc3cc(C(F)(F)F)c(Cl)cc3[nH]2)CCCN1C(=O)c1cc(Cl)ccc1-n1nccn1` [Ex. 5.139], the IC50 on human orexin-1 receptor amounted to 2 nM; at human orexin-2 receptor, 21 nM.
As to `C=C1C[C@@H](c2nc3cc(Cl)c(C(F)(F)F)cc3[nH]2)N(C(=O)c2cc(Cl)ccc2-n2nccn2)C1` [Ex. 6.177], the results for the IC50 at human orexin-1 receptor and at human orexin-2 receptor were 13 nM and 6 nM, respectively.
On to `C=C1C[C@@H](c2nc3cc(Cl)c(C(F)(F)F)cc3[nH]2)N(C(=O)c2cc(OC(F)(F)F)ccc2-n2nccn2)C1` [Ex. 6.185], for which the IC50 on human orexin-1 receptor worked out at 239 nM; at human orexin-2 receptor, 103 nM.
Regarding `Cc1nc(C(=O)N2CCC[C@@]2(C)c2nc3cc(OC(F)(F)F)ccc3[nH]2)c(-c2ccc(F)cc2)s1` [Ex. 5.248], the results for the half-inhibitory concentration (IC50) at human orexin-1 receptor and on human orexin-2 receptor were 22 nM and 494 nM, respectively.
Turning to `COc1cc2nc([C@]3(C)CCCN3C(=O)c3cncnc3-c3ccccc3)[nH]c2cc1OC` [Ex. 5.90], the figures for the IC50 at human orexin-1 receptor and at human orexin-2 receptor were 232 nM and 473 nM, respectively.
With `COc1ccc2nc([C@@H]3CCCN3C(=O)c3cc(C#N)ccc3-n3nccn3)[nH]c2c1` [Ex. 1.159], the IC50 is 903 nM on human orexin-1 receptor and 23 nM at human orexin-2 receptor.
The corresponding values for `C=C1C[C@@H](c2nc3cc(C(C)(C)C)ccc3[nH]2)N(C(=O)c2cc(OC)c(OC)cc2-n2nccn2)C1` [Ex. 6.170] are 18 nM and 15 nM.
The corresponding values for `C=C1C[C@@H](c2nc3cc(OC)ccc3[nH]2)N(C(=O)c2ncsc2-c2cccc(Cl)c2)C1` [Ex. 6.32] are 814 nM and 103 nM.
As to `COc1cccc2nc([C@@H]3CCCN3C(=O)c3cc(C)ccc3-n3nccn3)[nH]c12` [Ex. 1.4], the values for the IC50 on human orexin-1 receptor and on human orexin-2 receptor were 241 nM and 30 nM, respectively.
In the case of `Cc1nc(C(=O)N2CC(F)(F)C[C@H]2c2nc3c(C)cccc3[nH]2)c(-c2ccccc2)s1` [Ex. 2.4], the IC50 at human orexin-1 receptor was found to be 425 nM; on human orexin-2 receptor, 131 nM.
The corresponding values for `C=C1C[C@@H](c2nc3cc(OC)ccc3[nH]2)N(C(=O)c2nc(C3CC3)sc2-c2ccc(C)cc2)C1` [Ex. 6.35] are 146 nM and 80 nM.
On to `CSc1cccc2nc([C@@H]3CCCN3C(=O)c3nc(C)sc3-c3ccc(Br)cc3)[nH]c12` [Ex. 1.60], for which the values for the IC50 at human orexin-1 receptor and at human orexin-2 receptor were 61 nM and 48 nM, respectively.
As to `Cc1ccc(-c2ccccn2)c(C(=O)N2CC[C@H](C)[C@H]2c2nc3c(C)c(Cl)ccc3[nH]2)c1` [Ex. 4.161], the IC50 on human orexin-1 receptor came to 2 nM; at human orexin-2 receptor, 191 nM.
As for `COc1ccc(-c2sc(C)nc2C(=O)N2CC[C@H](C)[C@H]2c2nc3cc(C(F)(F)F)ccc3[nH]2)cc1` [Ex. 4.141], the IC50 at human orexin-1 receptor was determined as 5 nM; on human orexin-2 receptor, 2760 nM.
For the molecule `Cc1ccc(-n2nccn2)c(C(=O)N2CCC[C@@]2(C)c2nc3c(C)cccc3[nH]2)c1` [Ex. 5.6], the IC50 on human orexin-1 receptor was 32 nM; at human orexin-2 receptor, 59 nM.
The corresponding values for `COc1cccc(-c2sc(C)nc2C(=O)N2CCC[C@H]2c2nc3cccc(SC)c3[nH]2)c1` [Ex. 1.63] are 12 nM and 9 nM.
`COc1cc(C(=O)N2C[C@H](OC)CC2(C)c2nc3c(C)c(Cl)ccc3[nH]2)c(-n2nccn2)cc1OC` (stereo partly shown) [Ex. 3.52]: the values for the IC50 at human orexin-1 receptor and at human orexin-2 receptor were 28 nM and 27 nM, respectively.
As to `COc1cccc(-c2nc(C)ncc2C(=O)N2CCC[C@H]2c2nc3cccc(SC)c3[nH]2)c1` [Ex. 1.86], the concentration for half-maximal inhibition (IC50) at human orexin-1 receptor worked out at 56 nM; at human orexin-2 receptor, 118 nM.
Consider `COc1cccc(C#Cc2ccccc2C(=O)N2CC[C@H](C)[C@H]2c2nc3c(C)c(Cl)ccc3[nH]2)c1` [Ex. 4.134], for which the figures for the concentration for half-maximal inhibition (IC50) at human orexin-1 receptor and on human orexin-2 receptor were 1 nM and 86 nM, respectively.
The corresponding values for `CO[C@H]1CN(C(=O)c2nc(C)ccc2-n2cccn2)C(C)(c2nc3c(C)c(Cl)ccc3[nH]2)C1` (stereo partly shown) [Ex. 3.55] are 18 nM and 45 nM.
For `Cc1nc(C(=O)N2CCCC2c2nc3c(CO)cccc3[nH]2)c(-c2ccccc2)s1` (stereo not shown) [Ex. 1.128], in that order: 1480 nM and 331 nM.
As for `CCn1c([C@]2(C)CCCN2C(=O)c2cc(C)ccc2-n2nccn2)nc2cc(OC)c(OC)cc21` [Ex. 7.10], the IC50 at human orexin-1 receptor was 33 nM; on human orexin-2 receptor it was 42 nM.
As to `COc1ccc(-c2ccc3c(c2)OCO3)c(C(=O)N2CCC[C@@]2(C)c2nc3c(C)c(Cl)ccc3[nH]2)c1F` [Ex. 5.304], the IC50 was 19 nM on human orexin-1 receptor and 86 nM on human orexin-2 receptor.
Turning to `CSc1ccc2nc([C@@H]3CCCN3C(=O)c3cnc(C)nc3-c3ccccc3)[nH]c2c1` [Ex. 1.57], the IC50 on human orexin-1 receptor came out at 76 nM; on human orexin-2 receptor, 22 nM.
As for `COc1ccc(-n2nccn2)c(C(=O)N2CC[C@H](C)[C@H]2c2nc3c(C)cc(Cl)cc3[nH]2)c1` [Ex. 4.97], the results for the half-inhibitory concentration (IC50) at human orexin-1 receptor and at human orexin-2 receptor were 4 nM and 129 nM, respectively.
On to `CSc1ccc2nc([C@@H]3CCCN3C(=O)c3cnc(C)nc3-c3cc(Cl)cc(Cl)c3)[nH]c2c1` [Ex. 1.59], for which the IC50 came to 77 nM at human orexin-1 receptor and 252 nM at human orexin-2 receptor.
In the case of `Cc1nc(C(=O)N2CCCC2c2nc3c(Br)cc(F)cc3[nH]2)c(-c2ccccc2)s1` (stereo not shown) [Ex. 1.138], the results for the IC50 on human orexin-1 receptor and at human orexin-2 receptor were 35 nM and 109 nM, respectively.
Consider `Cc1ccc(-n2nccn2)c(C(=O)N2CCC[C@@]2(C)c2nc3c(C(C)C)cccc3[nH]2)c1` [Ex. 5.29], for which the IC50 stood at 13 nM on human orexin-1 receptor and 59 nM at human orexin-2 receptor.
On to `Cc1cc2nc([C@@H]3[C@@H](C)CCN3C(=O)c3cc(Cl)ccc3-n3nccn3)[nH]c2cc1C` [Ex. 4.81], for which the IC50 was determined as 4 nM at human orexin-1 receptor and 79 nM at human orexin-2 receptor.
On to `Cc1nc(C(=O)N2CC[C@H](C)[C@H]2c2nc3c(C(F)(F)F)cccc3[nH]2)c(-c2ccc(F)cc2)s1` [Ex. 4.149], for which the IC50 on human orexin-1 receptor stood at 14 nM; at human orexin-2 receptor, 752 nM.
For `Cc1cc(C(=O)N2CCC[C@@]2(C)c2nc3cc(F)c(Br)cc3[nH]2)c(-n2nccn2)cc1C` [Ex. 5.127], the IC50 on human orexin-1 receptor stood at 1 nM; on human orexin-2 receptor, 6 nM.
As to `COc1cc2nc([C@]3(C)CCCN3C(=O)c3cc(C)c(C)cc3-n3nccn3)[nH]c2cc1OC` [Ex. 5.72], the results for the IC50 on human orexin-1 receptor and on human orexin-2 receptor were 19 nM and 16 nM, respectively.
As to `C[C@@]1(c2nc3cc(C(F)(F)F)c(Cl)cc3[nH]2)CCCN1C(=O)c1c(F)cccc1-n1nccn1` [Ex. 5.133], the IC50 on human orexin-1 receptor turned out to be 11 nM; at human orexin-2 receptor, 45 nM.
Regarding `C=C1C[C@@H](c2nc3c(C)c(C)ccc3[nH]2)N(C(=O)c2cc(C)ccc2-n2nccn2)C1` [Ex. 6.63], the results for the IC50 on human orexin-1 receptor and on human orexin-2 receptor were 88 nM and 3 nM, respectively.
With `Cc1ccc(-n2nccn2)c(C(=O)N2CCC[C@@]2(C)c2nc3c(C)c(Cl)ccc3n2C)n1` [Ex. 7.18], the IC50 was determined as 1 nM on human orexin-1 receptor and 4 nM at human orexin-2 receptor.
For `COc1ccc2nc([C@@H]3CCCN3C(=O)c3nc(C)sc3-c3cccc(Cl)c3)[nH]c2c1` [Ex. 1.25], the IC50 is 364 nM on human orexin-1 receptor and 90 nM on human orexin-2 receptor.

As usually defined, the IC50 is the concentration at which inhibition is half-maximal.
